We go through three molecules from patent US9604997B2, “Peri-carbinols” (ALDEXA THERAPEUTICS, INC., priority 2012, dated 2017).

SMILES strings stand for the structures.

A short description of data set [1]: RAL depletion kinetics by drug in rod outer segment preparation. Format: biochemical, bovine. To be noted: for Kapp, apparent equilibrium constant of RAL depletion by drug: rod outer segment prep containing 64 μM opsin at 37° C.; for kapp, apparent second order rate constant of RAL depletion by drug / ΔGapp, apparent free energy change of RAL depletion by drug: rod outer segment preparation containing 64 μM opsin at 37° C.; for ΔGapp, apparent free energy change of RAL depletion by drug: ΔGapp=−RT ln Kapp. The source says: The parameters associated with the analysis of RAL depletion kinetics are as follows:
[drawing 47] kapp: apparent second order rate constant of RAL depletion by drug. Kapp: apparent equilibrium constant of RAL depletion by drug.
[formula] ΔGapp: apparent free energy change of RAL depletion by drug. ΔGapp=−RT ln Kapp (2) KT: equilibrium constant of tautomerism from imine (ring opened) to oxaminal (ring closed).
Determination of kapp, Kapp and ΔGapp in rod outer segments. Frozen bovine rod outer segment preparation (64 μM of opsin) was thawed and vortexed thoroughly. A 200 μL aliquot of this sample was transferred into a 0.5 mL Eppendorf tube. To it was added 10 μL of 20 mM drug stock solution in EtOH, and the mixture vortexed for 1 min. The tube was incubated at 37° C. in a Thermo Scientific microprocessor controlled 280 series water bath for 3 min before 5 μL freshly prepared 2.4 mM RAL solution in EtOH was added (the nominal starting concentrations of drug and RAL are 1.00 mM and 60 μM, respectively). After vortexing for 1 min, the tube was incubated at 37° C. and aliquots of the reaction mixture (25 μL each) were taken periodically and added onto 10 mg of solid NaBH4 in a 0.5 mL Eppendorf tube. To the latter was added 400 μL of 2:1 (v/v) EtOH/HOAc. The reduction mixture was vortexed for 1 min and centrifuged. The supernatant was separated, and analyzed by HPLC using a standard HPLC method: • Instrument: HPLC-PE-97 • Column: Waters Sunfire C18 3.5 μm/4.6×100 mm column • Solvent A: 0.05% HCOOH/95% HPLC grade water/5% HPLC grade MeCN • Solvent B: 0.05% HCOOH HPLC grade MeCN • Pump program: 0-3 min 5-100% B, 3-30 min 100% B, 31-32 min 100%-5% B, 32-35 min 5% B • Flow rate: 1 mL/min • Detector wavelengths: 329 and 250 nm • Reference wavelength: 400 nm • Injection volume: 50 μL.
The RAL depletion percentages were calculated by normalization of retinol (ROL) and RAL-drug peak integrals, which were then plotted against reaction time. Least squares fit of the RAL depletion plot according to pseudo-first order kinetics yielded observed first order rate constant kobsd, and kapp is calculated according to kobsd=kapp[drug]. Kapp was calculated from the equilibrium concentrations of free RAL, free drug and RAL-drug according to equation (1). ΔGapp was calculated according to equation (2).

Data set [2] can be described thus: Imine/oxaminal tautomerism of RAL-drug adducts by 1H NMR in CDCl3. To be noted: in CDCl3 at 25° C.; for ΔGT, free energy change of tautomerism from imine to oxaminal (ring closed): ΔGT=−RT ln KT. It counts as physicochemical. The procedure:
[formula] ΔGT: free energy change of tautomerism from imine to oxaminal. ΔGT=−RT ln KT (4) General Methods.
Preparation of the adducts RAL-1, RAL-2 and RAL-3 of RAL with Compounds 1, 2 and 3. Mixtures of 25.6 mg (0.09 mmol) RAL and 0.11 mmol of either Compound 1 or 2, or Compound 3 (2-[3-amino-6-chloroquinolin-2-yl]propan-2-ol, wherein the carbinol has no peri-interaction), in 1 mL dry benzene were stirred in the dark under argon at room temperature for 1 hr. The mixtures were evaporated to dryness and the residues evaporated twice from 2 mL benzene. The residues were dissolved in 1 mL benzene, allowed to stand 1 hr at room temperature and evaporated to dryness. The residues were evaporated from benzene (3×2 mL), redesolved in 0.5 mL dry benzene, and the solutions loaded on silica gel columns. The columns were first eluted with hexanes, and further eluted with 50:1 (v/v) hexanes-ethyl acetate. The fractions containing the adducts were evaporated to dryness to provide pure RAL-1, RAL-2 and RAL-3. The adducts were dissolved in 0.8 mL dry CDCl3, and the ratio of imine and oxaminal tautomers were determined from their ^1H NMR spectra. The values of KT and ΔGT were calculated according to equations (3) and (4).

On to `CC(C)(O)c1c(N)cnc2ccc(Cl)c(F)c12` [Compound 1, 2-(3-amino-6-chloro-5-fluoroquinolin-4-yl)propan-2-ol], for which, in data set [1], the “Kapp, apparent equilibrium constant of RAL depletion by drug” value (shortened to “Kapp, apparent equilibrium constant”) is reported as >2 × 10^7; the “kapp, apparent second order rate constant of RAL depletion by drug” value turned out to be 0.8556 M⁻¹ s⁻¹; the “ΔGapp, apparent free energy change of RAL depletion by drug” value (shortened to “ΔGapp, apparent free energy change”) was less than -10 kcal/mol. Further, in data set [2], the “KT, equilibrium constant of tautomerism from imine to oxaminal (ring closed)” value (from here on “KT, equilibrium constant of tautomerism”) is >>1000 and the “ΔGT, free energy change of tautomerism from imine to oxaminal (ring closed)” value (from here on “ΔGT, free energy change of tautomerism”) was <<−4 kcal/mol.

On to `CC(C)(O)c1nc2ccc(Cl)cc2cc1N` [Compound 3, 2-[3-amino-6-chloroquinolin-2-yl]propan-2-ol, reference compound], for which, in data set [1], the “Kapp, apparent equilibrium constant” value is 1.55 × 10^5; the “kapp, apparent second order rate constant of RAL depletion by drug” value was determined as 0.9917 M⁻¹ s⁻¹; the “ΔGapp, apparent free energy change” value was -7.4 kcal/mol. In data set [2], the “KT, equilibrium constant of tautomerism” value turned out to be 1.3 and the “ΔGT, free energy change of tautomerism” value was -0.155 kcal/mol.

On to `CC(C)(O)c1c(N)cnc2ccc(Cl)cc12` [Compound 2, 2-(3-amino-6-chloroquinolin-4-yl)propan-2-ol], for which, in data set [1], the “Kapp, apparent equilibrium constant” value is on record as >2 × 10^7; the “kapp, apparent second order rate constant of RAL depletion by drug” value worked out at 0.5278 M⁻¹ s⁻¹; the “ΔGapp, apparent free energy change” value was less than -10 kcal/mol. In addition, in data set [2], the “KT, equilibrium constant of tautomerism” value was >>1000 and the “ΔGT, free energy change of tautomerism” value is reported as <<−4 kcal/mol.
